Test systems include M14 melanoma; PC-3 prostate; ACHN renal; MDA-MB-231 breast; SK-OV-3 ovarian; SF-539 CNS; OVCAR-8 ovarian; HCC-2998 colon; NCI-H23 lung; MALME-3M melanoma; 786-0 renal; HS 578T breast; UACC-62 melanoma; KM12 colon; MCF7 breast; K-562 leukemia; HCT-116 colon; SK-MEL-2 melanoma; U251 CNS; RXF 393 renal.
Common to all, as to test: NCI-60 cell line screen, 48 h

The structures appear in SMILES notation.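 Where inhibition never reached the appropriate level, the endpoint shown equals the highest concentration tested. Otherwise, values were interpolated linearly from a five-concentration, 48-hour dose response in 96-well plates. TGI: concentration producing complete growth inhibition.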

On to `Cc1ccc2nc3c(=O)[nH]c(=O)nc-3n(C)c2c1C`, for which the TGI in the assay on M14 melanoma, with PC-3 prostate, in the assay on ACHN renal, with MDA-MB-231 breast, in the assay with SK-OV-3 ovarian and with SF-539 CNS was greater than 100 µM each time. In addition, the TGI with OVCAR-8 ovarian, in the assay on HCC-2998 colon, with NCI-H23 lung, in the assay on MALME-3M melanoma, in the assay on 786-0 renal and in the assay with HS 578T breast was greater than 100 µM throughout. The TGI with UACC-62 melanoma, in the assay on KM12 colon, in the assay on MCF7 breast, in the assay on K-562 leukemia, in the assay on HCT-116 colon and in the assay on SK-MEL-2 melanoma was greater than 100 µM each time. Also, the TGI with U251 CNS and in the assay with RXF 393 renal was greater than 100 µM each time.
As for `CC1CCC2(O)C3(C)CC4(O)OC2(C1O)C1(O)C3(O)C(OC(=O)c2ccc[nH]2)C(O)(C(C)C)C41C` (stereo not given), the TGI with M14 melanoma, with PC-3 prostate, with ACHN renal, in the assay with MDA-MB-231 breast, in the assay on SK-OV-3 ovarian and in the assay on SF-539 CNS was greater than 100 µM throughout. In addition, the TGI with OVCAR-8 ovarian, in the assay with HCC-2998 colon, in the assay on NCI-H23 lung, with MALME-3M melanoma, with 786-0 renal and with HS 578T breast was greater than 100 µM in each case. The TGI in the assay with UACC-62 melanoma, with KM12 colon, in the assay with MCF7 breast, in the assay on K-562 leukemia, with HCT-116 colon and in the assay on SK-MEL-2 melanoma was greater than 100 µM each time. Further, the TGI in the assay on U251 CNS and in the assay on RXF 393 renal was greater than 100 µM each time.
For `COc1ccc2nc3cc(Cl)ccc3c(NCCNC(=O)Cn3c(=O)n(C)c(=O)c4c3nc3c(c(=O)n(C)c(=O)n3C)[n+]4[O-])c2c1`, the TGI in the assay on M14 melanoma is greater than 100 µM; in the assay on PC-3 prostate, greater than 100 µM; with ACHN renal it was greater than 100 µM; in the assay with MDA-MB-231 breast, greater than 100 µM; in the assay with SK-OV-3 ovarian it was greater than 100 µM; with SF-539 CNS, greater than 65 µM. The TGI with OVCAR-8 ovarian is 57 µM; in the assay on HCC-2998 colon, greater than 100 µM; with NCI-H23 lung, 56 µM; in the assay on MALME-3M melanoma, greater than 100 µM; in the assay with 786-0 renal, greater than 100 µM; in the assay on HS 578T breast, 71.2 µM. In addition, the TGI in the assay with UACC-62 melanoma was greater than 52.9 µM; in the assay with KM12 colon, greater than 100 µM; with MCF7 breast, greater than 100 µM; in the assay on K-562 leukemia it was greater than 100 µM; in the assay on HCT-116 colon, greater than 100 µM; in the assay on SK-MEL-2 melanoma it was greater than 100 µM. Besides, the figures for the TGI in the assay on U251 CNS and in the assay with RXF 393 renal were 58.9 µM and greater than 100 µM, respectively.
For `COC(=O)C1=C(C)NC(C)=C(C(=O)OC)C1c1ccccc1NO`, the TGI with M14 melanoma, in the assay on PC-3 prostate, in the assay on ACHN renal, with MDA-MB-231 breast, with SK-OV-3 ovarian and with SF-539 CNS was greater than 100 µM in each case. Moreover, the TGI in the assay on OVCAR-8 ovarian, with HCC-2998 colon, with NCI-H23 lung, in the assay with MALME-3M melanoma, in the assay on 786-0 renal and in the assay on HS 578T breast was greater than 100 µM throughout. In addition, the TGI with UACC-62 melanoma is greater than 100 µM; in the assay on KM12 colon it was greater than 100 µM; with MCF7 breast, greater than 100 µM; in the assay on K-562 leukemia it was greater than 100 µM; in the assay on HCT-116 colon, 48.2 µM; in the assay with SK-MEL-2 melanoma it was greater than 100 µM. The TGI in the assay on U251 CNS and with RXF 393 renal was greater than 100 µM each time.
In the case of `CC(=O)OCC1=C(C(=O)O)N2C(=O)C(NC(=O)CSc3ccncc3)C2SC1` (stereo not given), the TGI in the assay on M14 melanoma, in the assay on PC-3 prostate, in the assay on ACHN renal, in the assay on MDA-MB-231 breast, in the assay on SK-OV-3 ovarian and in the assay on SF-539 CNS was greater than 100 µM throughout. Besides, the TGI with OVCAR-8 ovarian, with HCC-2998 colon, in the assay with NCI-H23 lung, in the assay with MALME-3M melanoma, in the assay with 786-0 renal and with HS 578T breast was greater than 100 µM each time. Further, the TGI in the assay with UACC-62 melanoma, in the assay with KM12 colon, in the assay with MCF7 breast, with K-562 leukemia, in the assay on HCT-116 colon and in the assay with SK-MEL-2 melanoma was greater than 100 µM in each case. Also, the TGI in the assay on U251 CNS and in the assay with RXF 393 renal was greater than 100 µM throughout.
Turning to `COc1ccc(/C=C2\CCC(CNc3ccc(S(N)(=O)=O)cc3)C2=O)cc1` (stereo not given), the TGI with M14 melanoma is 36.4 µM; with PC-3 prostate it was 42.2 µM; with ACHN renal, 53.7 µM; in the assay with MDA-MB-231 breast, 35.5 µM; in the assay on SK-OV-3 ovarian, greater than 100 µM; in the assay with SF-539 CNS it was greater than 59.2 µM. In addition, the TGI in the assay with OVCAR-8 ovarian is 35.4 µM; with HCC-2998 colon, greater than 100 µM; with NCI-H23 lung it was 39.6 µM; with MALME-3M melanoma, 36 µM; in the assay with 786-0 renal, 11.2 µM; in the assay with HS 578T breast, greater than 91.1 µM. Also, the TGI in the assay with UACC-62 melanoma is 50.6 µM; with KM12 colon, 31.3 µM; with MCF7 breast, 14.7 µM; with K-562 leukemia it was 3.74 µM; in the assay on HCT-116 colon, 22.9 µM; in the assay with SK-MEL-2 melanoma, greater than 100 µM. Also, the figures for the TGI in the assay on U251 CNS and in the assay with RXF 393 renal were 39.2 µM and 35.3 µM, respectively.
`O=[N+]([O-])c1c(F)c(F)c2c(c1F)Nc1ccccc1S2`: the TGI is 10.4 µM with M14 melanoma; 22.4 µM with PC-3 prostate; 29.1 µM in the assay with ACHN renal; 4.76 µM in the assay on MDA-MB-231 breast; 35.9 µM in the assay on SK-OV-3 ovarian; 39.6 µM in the assay with SF-539 CNS. In addition, the TGI in the assay on OVCAR-8 ovarian came out at 3.89 µM; in the assay with HCC-2998 colon it was 6.96 µM; in the assay on NCI-H23 lung, 7.13 µM; in the assay with MALME-3M melanoma, 18.5 µM; in the assay with 786-0 renal, 21.6 µM; in the assay on HS 578T breast, 28.6 µM. For the same compound, the TGI in the assay on UACC-62 melanoma is 20.4 µM; in the assay with KM12 colon it was 15.5 µM; in the assay with MCF7 breast, 17.8 µM; in the assay with K-562 leukemia, greater than 100 µM; in the assay on HCT-116 colon it was 6.18 µM; with SK-MEL-2 melanoma, 4.75 µM. Besides, the TGI worked out at 3.9 µM in the assay with U251 CNS and 8.88 µM with RXF 393 renal.

For the origin of these results see PubChem BioAssay (NCI).
